Assay results as given in ChEMBL document CHEMBL3639059, “Pyrazolothiazole compound” (2013).

Target: T1, Corticotropin-releasing factor receptor 1 (Homo sapiens, UniProt P34998)
T1 sequence (P34998 whole entry): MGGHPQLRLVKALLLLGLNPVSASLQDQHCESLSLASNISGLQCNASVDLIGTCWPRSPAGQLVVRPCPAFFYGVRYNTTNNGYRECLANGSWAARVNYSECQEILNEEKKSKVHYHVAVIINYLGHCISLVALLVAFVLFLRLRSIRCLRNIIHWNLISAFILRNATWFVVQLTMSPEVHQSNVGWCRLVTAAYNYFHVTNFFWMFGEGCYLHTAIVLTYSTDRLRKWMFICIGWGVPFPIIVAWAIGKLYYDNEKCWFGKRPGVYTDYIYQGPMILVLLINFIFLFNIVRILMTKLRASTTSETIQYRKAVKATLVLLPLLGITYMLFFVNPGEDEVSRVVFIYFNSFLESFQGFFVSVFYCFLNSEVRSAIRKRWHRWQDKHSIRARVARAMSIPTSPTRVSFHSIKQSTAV
Assay: Binding Assay: A binding competition experiment with CRF was conducted by the SPA (GE Healthcare) method using a 96-well plate.

IC50: 74 nM
Compound: CCCN(c1c(OC)nn2c(-c3c(OC)cc(Cl)cc3OC)csc12)C1CCOCC1
